Test: HCV replicon assay (luciferase reporter, ET cell line)
Format: cell-based
Settings: Hepatitis C virus, HCV replicon luciferase activity in ET cells
How it was run: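 EC50 and, via WST-1 cytotoxicity, TC50 were fitted with a Hill-coefficient equation to % inhibition across 10 two-fold dilutions. Compounds at 0.1 nM-[…] with 0.5% DMSO were applied 24 h post-seeding to replicon-bearing ET cells (luc-ubi-neo/NS3-5B, adaptive mutations). Firefly luciferase signal was measured after 48-72 h.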

SMILES	inhibition at 10 µM [%]
CN(C)CCOc1ccccc1CNC(=O)c1nc2c(C(F)(F)F)cc(-c3ccco3)cn2c1Cl [Compound 215, 3-Chloro-6-furan-2-yl-8-trifluoromethyl-imidazo[1,2-a]pyridine-2-carboxylic Acid 2-(2-dimethylamino-ethoxy)-benzylamide]	49
O=C(c1nc2c(C(F)(F)F)cc(-c3cn[nH]c3)cn2c1Br)N1CC=C(c2nccs2)C1 [Compound 433, [3-Bromo-6-(1H-pyrazol-4-yl)-8-trifluoromethyl-imidazo[1,2-a]pyridin-2-yl]-(3-thiazol-2-yl-2,5-dihydro-pyrrol-1-yl)-methanone]	99.2
O=C(NCc1cccs1)c1nc2c(C(F)(F)F)cc(-c3cccc(F)c3)cn2c1Br [Compound 367, 3-bromo-6-(3-fluoro-phenyl)-8-trifluoromethyl-imidazo[1,2-a]pyridine-2-carboxylic acid (thiophen-2-ylmethyl)-amide]	96.2
CN1CCN(C(=O)c2nc3c(C(F)(F)F)cc(-c4ccco4)cn3c2Cl)CC1c1ccccc1 (stereo not shown) [Compound 318, (3-Chloro-6-furan-2-yl-8-trifluoromethyl-imidazo[1,2-a]pyridin-2-yl)-(4-methyl-3-phenyl-piperazin-1-yl)-methanone]	62.4
O=C(c1nc2c(C(F)(F)F)cc(-c3cn[nH]c3)cn2c1Br)N1CCC(c2ccc(F)cc2)C1 (stereo not shown) [Compound 256, [3-Bromo-6-(1H-pyrazol-4-yl)-8-trifluoromethyl-imidazo[1,2-a]pyridin-2-yl]-[3-(4-fluoro-phenyl)-pyrrolidin-1-yl]-methanone]	92
COc1ccc(CNC(=O)c2nc3c(C(F)(F)F)cc(-c4ccco4)cn3c2Cl)cc1 [Compound 192, 3-Chloro-6-furan-2-yl-8-trifluoromethyl-imidazo[1,2-a]pyridine-2-carboxylic acid 4-methoxy-benzylamide]	73.9
O=C(c1nc2c(C(F)(F)F)cc(-c3ccco3)cn2c1Cl)N1CCc2ccccc21 [Compound 380, (3-Chloro-6-furan-2-yl-8-trifluoromethyl-imidazo[1,2-a]pyridin-2-yl)-(2,3-dihydro-indol-1-yl)-methanone]	20.2
Cc1ccccc1C1CCN(C(=O)c2nc3c(C(F)(F)F)cc(-c4ccoc4)cn3c2Cl)CC1 [Compound 542, (3-Chloro-6-furan-3-yl-8-trifluoromethyl-imidazo[1,2-a]pyridin-2-yl)-(4-o-tolyl-piperidin-1-yl)-methanone]	72.4
O=C(c1nc2c(C(F)(F)F)cc(-c3ccoc3)cn2c1Cl)N1CC=C(c2nccs2)CC1 [Compound 559, (3-Chloro-6-furan-3-yl-8-trifluoromethyl-imidazo[1,2-a]pyridine-2-yl)-(4-thiazol-2-yl-3,6-dihydro-2H-pyridin-1-yl)-methanone]	99.1
O=C(NCCc1ccccc1F)c1nc2c(C(F)(F)F)cc(-c3ccoc3)cn2c1Cl [Compound 405, 3-Chloro-6-furan-3-yl-8-trifluoromethyl-imidazo[1,2-a]-pyridine-2-carboxylic acid [2-(2-fluoro-phenyl)-ethyl]-amide]	90
O=C(NCc1cccc(F)c1)c1nc2c(C(F)(F)F)cc(-c3ccoc3)cn2c1Cl [Compound 403]	88.9
O=C(c1nc2c(C(F)(F)F)cc(-c3ccoc3)cn2c1Cl)N1CCC(C2CCOC2)C1 (stereo not shown) [Compound 431, (3-Chloro-6-furan-3-yl-8-trifluoromethyl-imidazo[1,2-a]pyridin-2-yl)-[3-(tetrahydro-furan-3-yl)-pyrrolidin-1-yl]-methanone]	95.1
O=C(NCc1cccs1)c1nc2c(C(F)(F)F)cc(-c3cn[nH]c3)cn2c1Cl [Compound 290, 3-Chloro-6-(1H-pyrazol-4-yl)-8-trifluoromethyl-imidazo[1,2-a]pyridine-2-carboxylic Acid(thiophen-2-ylmethyl)-amide]	93.9
O=C(NCc1cccs1)c1nc2c(C(F)(F)F)cc(-c3cn[nH]n3)cn2c1Cl [Compound 308, 3-Chloro-6-(2H-[1,2,3]triazol-4-yl)-8-trifluoromethyl-imidazo[1,2-a]pyridine-2-carboxylic Acid (thiophen-2-ylmethyl)-amide]	88.2
O=C(NCc1cccs1)c1nc2c(Br)cc(-c3ccccc3)cn2c1Cl [Compound 371, 8-Bromo-3-chloro-6-phenyl-imidazo[1,2-a]pyridine-2-carboxylic Acid (thiophen-2-ylmethyl)-amide]	78.6
O=C(c1nc2c(C(F)(F)F)cc(-c3ccoc3)cn2c1Cl)N1CCC(Nc2ccccc2)C1 (stereo not shown) [Compound 599, (3-Chloro-6-furan-3-yl-8-trifluoromethyl-imidazo[1,2-a]pyridin-2-yl)-(3-phenylamino-pyrrolidin-1-yl)-methanone]	91.1
O=C(NCc1cccs1)c1[nH]c2c(Cl)cc(-c3ccccc3)cc2c1Cl [Compound 110, 3,7-Dichloro-5-phenyl-1H-indole-2-carboxylic acid (thiophen-2-ylmethyl)-amide]	35.9

SMILES	inhibition at 10 µM [%]
O=C(c1nc2c(C(F)(F)F)cc(-c3cn[nH]c3)cn2c1Cl)N1CCC(c2cccs2)C1 (stereo not shown) [Compound 441, [3-Chloro-6-(1H-pyrazol-4-yl)-8-trifluoromethyl-imidazo[1,2-a]pyridin-2-yl]-(3-thiophen-2-yl-pyrrolidin-1-yl)-methanone]	97.6
CN(Cc1cccs1)C(=O)c1cc2cc(-c3ccccc3)cc(C(F)(F)F)n2n1 [Compound 147, 5-phenyl-7-trifluoromethyl-pyrazolo[1,5-a]pyridine-2-carboxylic Acid methyl-thiophen-2-ylmethyl-amide]	26.8
O=C(N[C@H]1C[C@@H]1c1ccccc1)c1nc2c(C(F)(F)F)cc(-c3ccco3)cn2c1Cl (stereo in doubt) [Compound 188, 3-Chloro-6-furan-2-yl-8-trifluoromethyl-imidazo[1,2-a]pyridine-2-carboxylic acid (2-phenyl-cyclopropyl)-amide]	80.5
O=C(NCc1cccs1)c1nc2c(C(F)(F)F)cc(-c3cccc(F)c3)cn2c1C#CCCO [Compound 306, 6-(3-Fluoro-phenyl)-3-(4-hydroxy-but-1-ynyl)-8-trifluoromethyl-imidazo[1,2-a]pyridine-2-carboxylic Acid (thiophen-2-ylmethyl)-amide]	62.5
O=C(NC1CCc2ccccc21)c1nc2c(C(F)(F)F)cc(-c3ccco3)cn2c1Cl (stereo not shown) [Compound 187, 3-Chloro-6-furan-2-yl-8-trifluoromethyl-imidazo[1,2-a]pyridine-2-carboxylic acid indan-1-ylamide]	34.2
O=C(NCc1cccs1)c1nc2c(C(F)(F)F)cc(-c3cccnc3)cn2c1Cl [Compound 208, 3-Chloro-6-pyridin-3-yl-8-trifluoromethyl-imidazo[1,2-a]pyridine-2-carboxylic acid (thiophen-2-ylmethyl)-amide]	88.5
CS(=O)(=O)NC1CN(C(=O)c2nc3c(C(F)(F)F)cc(-c4cn[nH]c4)cn3c2Cl)C1 [Compound 521, N-{1-[3-Chloro-6-(1H-pyrazol-4-yl)-8-trifluoromethyl-imidazo[1,2-a]pyridine-2-carbonyl]-azetidin-3-yl}-methanesulfonamide]	72.8
CN(Cc1cccs1)C(=O)c1nc2c(C(F)(F)F)cc(-c3ccoc3)cn2c1Cl [Compound 332, 3-Chloro-6-furan-3-yl-8-trifluoromethyl-imidazo[1,2-a]pyridine-2-carboxylic Acid Methyl-thiophen-2-ylmethyl-amide]	37.7
O=S(=O)(Cc1ccccc1)NCc1cn2cc(-c3ccoc3)cc(C(F)(F)F)c2n1 [Compound 396]	94.2
CC(C)c1cc(-c2ccccc2)cn2cc(C(=O)N3CCC(c4cccc(F)c4)C3)nc12 (stereo not shown) [Compound 646, [3-(3-Fluoro-phenyl)-pyrrolidin-1-yl]-(8-isopropyl-6-phenyl-imidazo[1,2-a]pyridin-2-yl)-methanone]	42.4
O=C(NC(c1ccccc1)c1cccs1)c1nc2c(C(F)(F)F)cc(-c3ccoc3)cn2c1Cl (stereo not shown) [Compound 602, 3-Chloro-6-furan-3-yl-8-trifluoromethyl-imidazo[1,2-a]pyridine-2-carboxylic Acid (phenyl-thiophen-2-yl-methyl)-amide]	90.5
O=C(NCc1cccs1)c1nc2c(Cl)cc(-c3ccccc3)cn2c1Br [Compound 369, 3-Bromo-8-chloro-6-phenyl-imidazo[1,2-a]pyridine-2-carboxylic Acid (thiophen-2-ylmethyl)-amide]	88
O=C(NCCN1CCOCC1)[C@@H]1CN(C(=O)c2nc3c(C(F)(F)F)cc(-c4ccoc4)cn3c2Cl)C[C@H]1c1ccccc1 (stereo in doubt) [Compound 225]	39.8
O=C(c1nc2c(C(F)(F)F)cc(-c3ccoc3)cn2c1Cl)N1CCCCC1c1ccccc1F (stereo not shown) [Compound 544, (3-Chloro-6-furan-3-yl-8-trifluoromethyl-imidazo[1,2-a]pyridin-2-yl)-[2-(2-fluoro-phenyl)-piperidin-1-yl)-methanone]	75.4
O=C(c1nc2c(C(F)(F)F)cc(-c3ccco3)cn2c1Cl)N1CCC(c2ccc(F)cc2)C1 (stereo not shown) [Compound 316, (3-Chloro-6-furan-2-yl-8-trifluoromethyl-imidazo[1,2-a]pyridin-2-yl)-[3-(4-fluoro-phenyl)-pyrrolidin-1-yl]-methanone]	89.2
O=C(NCc1cccs1)c1nc2c(C(F)(F)F)cc(-c3ccn[nH]3)cn2c1Cl [Compound 283, 3-Chloro-6-(2H-pyrazol-3-yl)-8-trifluoromethyl-imidazo[1,2-a]pyridine-2-carboxylic Acid(thiophen-2-ylmethyl)-amide]	87.5
O=C(c1nc2c(C(F)(F)F)cc(-c3ccoc3)cn2c1Cl)N1CC=C(c2c[nH]cn2)CC1 [Compound 558, (3-Chloro-6-furan-3-yl-8-trifluoromethyl-imidazo[1,2-a]pyridin-2-yl)-[4-(1H-imidazol-4-yl)-3,6-dihydro-2H-pyridin-1-yl]-methanone]	89.3

Reference: patent publication US20120121540A1 (priority 2007, published 2012)
